According to ChEMBL document CHEMBL1157957, “9,11-Secosterols from the soft corals Sinularia lochmodes and Sinularia leptoclados” (J Nat Prod, 2006):
In brackets after ≈: the same amount, converted by molar mass.

Key:
Assay type in all cases: functional, cell-based
MCF7 = assay: Cytotoxicity against human MCF7 cells by MTT assay
MDA-MB-231 = assay: Cytotoxicity against human MDA-MB-231 cells by MTT assay
HepG2 = assay: Cytotoxicity against human HepG2 cells by MTT assay
A549 = assay: Cytotoxicity against human A549 cells by MTT assay

SMILES	IC50 (MCF7)	IC50 (MDA-MB-231)	IC50 (HepG2)	IC50 (A549)
C=C(CC[C@@H](C)[C@H]1CC[C@@H]([C@@H]2CC[C@H]3C[C@@H](O)CC[C@]3(C)C2=O)[C@]1(C)CCO)C(C)C	9.2 µg/mL (≈ 21.3 µM)	11.3 µg/mL (≈ 26.1 µM)	8.2 µg/mL (≈ 19 µM)	9.8 µg/mL (≈ 22.6 µM)
C=C(CC[C@@H](C)[C@H]1CC[C@@H]([C@@H]2CC=C3C[C@@H](O)CC[C@]3(C)C2=O)[C@]1(C)CCO)C(C)C	4.5 µg/mL (≈ 10.4 µM)	9.9 µg/mL (≈ 23 µM)	9.1 µg/mL (≈ 21.1 µM)	9.1 µg/mL (≈ 21.1 µM)
CC(C)C(C)CC[C@@H](C)[C@H]1CC[C@@H]([C@@H]2CC=C3C[C@@H](O)CC[C@]3(C)C2=O)[C@]1(C)CCO (stereo not given in full)	15.7 µg/mL (≈ 36.3 µM)	15 µg/mL (≈ 34.7 µM)	14.1 µg/mL (≈ 32.6 µM)	16.8 µg/mL (≈ 38.8 µM)
COc1cccc2c1C(=O)c1c(O)c3c(c(O)c1C2=O)C[C@@](O)(C(=O)CO)C[C@@H]3O[C@H]1C[C@H](N)[C@H](O)[C@H](C)O1 [DOXORUBICIN]	0.4 µg/mL (≈ 0.736 µM)	–	0.3 µg/mL (≈ 0.552 µM)	0.4 µg/mL (≈ 0.736 µM)
